Measured values as given in a melting point compilation (Tetko et al.; mined from patent text by program, amines drawn as free bases though some values may be those of a salt).

Compound	melting point
COc1ccc(Oc2nc(Nc3cccc(C(=O)O)c3)nc(Oc3ccc(C#N)cc3)n2)cc1	240 to 242 °C
CCOC(=O)Nc1nc(-c2ccccc2)c(-c2nc3ccccc3c(=O)n2-c2cccc(Cl)c2)s1	235 to 236 °C
COC(=O)c1ccc(C=CC(=O)c2ccc3c(c2)C(C)(C)CCC3(C)C)cc1	89 to 91 °C
C=CCOc1cc(C)ccc1N1C(=O)c2ccccc2C1=O	122 to 124 °C
CCCCc1ncc(/C=C(\Cc2cccs2)C(=O)O)n1Cc1cccc(OC)c1[N+](=O)[O-]	213 to 215 °C
COc1cc(Cl)cc(CC#N)c1Cl	53 to 57 °C
Nc1cc(C(=O)O)c(N)c2c1C(=O)c1ccccc1C2=O	352 °C
Cc1cnc(C(=O)c2[nH]c3cc(Cl)ccc3c2CC(=O)O)cc1C	226 to 228 °C
Cc1ccc(NC(=O)c2ccc(CBr)c(C(F)(F)F)c2)cc1Br	153 to 154 °C
CNC1c2ccccc2CC1N1CCCCC1 (centres undefined)	> 260 °C
CCOC(=O)c1cc2ccc3c(c4ccccc4n3CC)c2n1C	116 °C
Cc1nc(C(Br)Br)nc(C(Br)Br)n1	87 to 88.5 °C
O=C(c1cccnc1)C(O)c1ccccc1Cl (centres undefined)	92 °C
NC(=O)c1ccc(Cn2ccc(OCc3ccc(F)cc3F)c(Br)c2=O)cc1	235 to 238 °C
CC1(C)CC(=C(c2ccccc2)c2ccc(OCCO)cc2)CC(C)(C)C1	131 to 132 °C
COc1ccc(C)c(Nc2c(C#N)cnc3cc(Cl)c([N+](=O)[O-])cc23)c1	180 to 182 °C
CCCCCCCCC(C)OC(=O)NC(C)(C=O)CCc1c[nH]c2ccccc12 (centres undefined)	178 to 179 °C
CCCCCOc1nc(N)c2ncn(C3CCCCC3)c2n1	64 to 68 °C
COc1ccc(NC(=O)C2CCCCn3c2nc(-c2ccncn2)cc3=O)c(OC)n1 (racemic)	231 to 233 °C
CCOc1ccc(-c2ccc(Cl)cc2)cc1C=O	88 to 90 °C

Compound	melting point
CNc1cc(Cl)c(C=O)c(Cl)c1	172 to 174 °C
CC(C)=CCN1CC(=O)Nc2cc(S(=O)(=O)Oc3ccccc3)ccc21	132 °C
Cc1cc(C(O)(c2cc(C)sc2C)c2cc(C)sc2C)c(C)s1	110 to 111 °C
O=C(c1ccc(O)cc1)c1c(-c2ccccc2)ccc2ccccc12	204 to 205 °C
Cc1c(-c2ccncc2)[nH]c(-c2ccncc2)c1C(C)O (centres undefined)	250 to 252 °C
C(=C\c1nc(COc2ccc(CCCn3ccnn3)cc2)co1)/c1ccccc1	142 to 143 °C
FC(F)(F)COC(c1ccccc1)(c1ccccc1)c1ccccc1	111 °C
O=[N+]([O-])c1ccc(CP2(=O)OCCCCO2)cc1	136 to 137 °C
CCCCCN(CCCCC)C(=O)C(Cc1ccc(OCC(=O)O)c(C(=O)O)c1)NC(=O)C(Cc1ccccc1)NC(=O)OC(C)(C)C (centres undefined)	87 to 90 °C
Oc1ncc(-c2cccc(C(F)(F)F)c2)cn1	283 to 285 °C
ON=Cc1cn(C(c2ccccc2)(c2ccccc2)c2ccccc2)c(F)n1	147 to 149 °C
OCC1OC(n2cnc3c(NCc4ccc5ccc6cccc7ccc4c5c67)ncnc32)C(O)C1O (centres undefined)	144 °C
COC(=O)C1=C(N)NC(C)=C([N+](=O)[O-])C1c1ccccc1OCCCCCN1CCN(c2ccccc2OC)CC1 (centres undefined)	167 °C
O=C(O)COc1cccc(CCc2nc(-c3ccccc3)c(-c3ccccc3)s2)c1	118 to 120 °C
CS(=O)(=O)N(Cc1cccnc1)c1ccccc1F	120 °C
Cc1ccc(CN2C(=O)C(CCO)Oc3ccccc32)cc1 (centres undefined)	92 to 94 °C
COc1ccc(O)c(NS(C)(=O)=O)c1	135 to 136 °C
COc1cc2nc(-c3cc(C)c(OCCO)c(C)c3)[nH]c(=O)c2cc1OC	> 300 °C
CC(C)NS(=O)(=O)c1sccc1-c1cccc2cc(-c3ncc(CCl)s3)[nH]c12	184 to 185 °C
